Data on two compounds can be found in publication PMC8962251 (Biomedicines, 2022).

Bridges are numbered along the chain shown (N, C = ends). Roman numbers before positions name the chains, in order. [ ]: non-standard residue; d: D form. GABA = NCCCC(=O)O

In assay [1] the target is SARS-CoV-2 S1S2 spike interaction with hACE2 (Severe acute respiratory syndrome coronavirus 2, UniProt P0DTC2). In kind it is binding, SARS-CoV-2; human.
In assay [2] the target is SARS-CoV-2 S1S2 monomer (Severe acute respiratory syndrome coronavirus 2, UniProt P0DTC2). It counts as binding.
Assay [3] concerns pre-formed complex of SARS-CoV-2 S1S2 monomer and hACE2. It counts as binding, SARS-CoV-2; human.
For assay [4], the target named is SARS-CoV-2 RBD (Severe acute respiratory syndrome coronavirus 2, UniProt P0DTC2). It counts as binding.
The target in assay [5] is SARS-CoV-2 S1S2 trimer (Severe acute respiratory syndrome coronavirus 2, UniProt P0DTC2). It counts as binding.

For `C[C@@H](O)[C@H](NC(=O)[C@H](Cc1c[nH]c2ccccc12)NC(=O)[C@@H](NC(=O)[C@H](CC(=O)O)NC(=O)[C@H](CC(N)=O)NC(=O)[C@H](CCCCN)NC(=O)[C@H](CCCCN)NC(=O)[C@H](CC(=O)O)NC(=O)[C@H](Cc1ccc(O)cc1)NC(=O)[C@H](CCC(=O)O)NC(=O)[C@H](Cc1c[nH]c2ccccc12)NC(=O)[C@H](Cc1c[nH]c2ccccc12)NC(=O)[C@H](Cc1ccccc1)NC(=O)[C@H](CC(=O)O)NC(=O)[C@@H](N)Cc1c[nH]cn1)[C@@H](C)O)C(=O)N[C@@H](CCCNC(=N)N)C(=O)N[C@@H](CCCNC(=N)N)C(=O)N[C@@H](CCCNC(=N)N)C(=O)N[C@@H](CCCNC(=N)N)C(N)=O` [CVRBDL-3], in assay [1], the “saturation level of the inhibitory effect (% of S1S2 binding level without compound)” value is ~ 58% and the “steady-state reduction of S1S2 binding signal to hACE2” value is reported as ~ 33%.

“I: H-HDFWWEYDKKNDTWTR[GABA]R[GABA]RK-NH2 / II: H-HDFWWEYDKKNDTWTR[GABA]R[GABA]R (amide I:21-II:C) [CVRBDL-3_3]”: in assay [1], the “increase of inhibition efficiency compared with CVRBDL-3 (factor)” value is ~ 11. The “% of theor. Rmax” value in assay [2] is on record as 104%; in assay [4] it was 65%; in assay [5] it was 76%. Besides, the “complex stability increase compared with CVRBDL-3 (factor)” value in assay [2] is listed as ~ 2.5; in assay [4] it was ~ 2; in assay [5] it was ~ 2.5. The “maximum displacement compared with CVRBDL-3 (factor)” value in assay [3] is reported as 1.6. Moreover, the DC50 in assay [3] (read-out: DC50 (compound concentration where 50% of the maximum displacement is reached)) is 417 nM.
